# According to US20110182850A1, “ORGANIC COMPOUNDS AND THEIR USES” (priority 2009, published 2011):
# Target: T1, HCV NS3-4A serine protease (full-length NS3-4A protein, genotype 1a, strain HCV-1) (Hepatitis C virus genotype 1a, UniProt P26664)
# T1 construct: using the full-length NS3-4A protein (genotype 1a, strain HCV-1)
# Assay: HCV NS3-4A protease assay
# Type: biochemical
# Settings: Protease IC50
# Protocol: The inhibitory activity of certain compounds of Table A against HCV NS3-4A serine protease is determined in a homogenous assay using the full-length NS3-4A protein (genotype 1a, strain HCV-1) and a commercially available internally-quenched fluorogenic peptide substrate as described by Taliani, M., et al. 1996 Anal. Biochem. 240:60-67, which is incorporated by reference in its entirety.
# T1 sequence (P26664 1658-1711): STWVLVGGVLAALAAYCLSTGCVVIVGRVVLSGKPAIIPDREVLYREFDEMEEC
# T1 sequence (P26664 1027-1657): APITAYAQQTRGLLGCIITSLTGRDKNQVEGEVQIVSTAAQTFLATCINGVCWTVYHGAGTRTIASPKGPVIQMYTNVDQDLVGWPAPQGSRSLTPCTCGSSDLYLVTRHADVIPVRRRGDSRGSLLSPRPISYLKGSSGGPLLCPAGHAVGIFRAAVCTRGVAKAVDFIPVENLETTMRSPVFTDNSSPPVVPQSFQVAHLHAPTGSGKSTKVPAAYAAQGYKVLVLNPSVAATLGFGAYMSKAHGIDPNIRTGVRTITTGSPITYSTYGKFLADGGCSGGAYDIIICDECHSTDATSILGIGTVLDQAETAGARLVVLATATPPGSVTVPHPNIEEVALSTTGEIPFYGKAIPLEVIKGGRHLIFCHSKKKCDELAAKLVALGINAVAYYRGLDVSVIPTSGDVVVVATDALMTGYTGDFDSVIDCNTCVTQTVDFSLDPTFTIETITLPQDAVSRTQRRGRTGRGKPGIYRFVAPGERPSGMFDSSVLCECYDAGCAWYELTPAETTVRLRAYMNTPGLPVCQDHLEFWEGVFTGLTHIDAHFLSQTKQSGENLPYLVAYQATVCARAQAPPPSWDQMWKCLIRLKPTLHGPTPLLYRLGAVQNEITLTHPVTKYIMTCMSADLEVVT
row,Compound,IC50 [nM]
1,"C=C[C@@H]1C[C@]1(NC(=O)[C@@H]1C[C@@]2(CN1C(=O)[C@@H](NC(=O)[C@@H](N1CCCC1=O)C(C)(C)C)C(C)(C)C)C(C)(C)C21CCC1)C(=O)NS(=O)(=O)C1CC1 [Compound 35, (5R,8S)-N-{(1R,2S)-1-[(cyclopropylsulfonyl)carba-moyl]-2-vinylcyclopropyl}-7-[(2S)-2-{[(2S)-3,3-dimethyl-2-(2-oxopyrrolidin-1-yl)butanoyl]amino}-3,3-dimethylbutanoyl]-10,10-dimethyl-7-azadispiro[3.0.4.1]decane-8-carboxamide]",9
2,"C=C[C@@H]1C[C@]1(NC(=O)[C@@H]1C[C@@]2(CN1C(=O)[C@@H](NC(=O)[C@@H](NC(=O)[C@@H]1CCCCN1C(C)C)C(C)(C)CC)C(C)(C)C)C(C)(C)C21CCC1)C(=O)NS(=O)(=O)C1CC1 [Compound 36, (5R,8S)-N-{(1R,2S)-1-[(cyclopropylsulfonyl)carba-moyl]-2-vinylcyclopropyl}-7-[(2S)-2-{[(2S)-2-({[(2S)-1-isopropylpiperidin-2-yl]carbonyl}amino)-3,3-dimethylpentanoyl]amino}-3,3-dimethylbutanoyl]-10,10-dimethyl-7-azadispiro[3.0.4.1]decane-8-carboxamide]",1
3,"C=C[C@@H]1C[C@]1(NC(=O)[C@@H]1C[C@@]2(CN1C(=O)[C@@H](NC(=O)[C@@H]1CCCCCCCN3CCCC[C@H]3C(=O)N1)C(C)(C)C)C(C)(C)C21CCC1)C(=O)NS(=O)(=O)C1CC1 [Compound 38, (5R,8S)-N-{(1R,2S)-1-[(cyclopropylsulfonyl)carba-moyl]-2-vinylcyclopropyl}-7-[(2S)-3,3-dimethyl-2-({[(3S,15aS)-1-oxotetradecahydro-2H-pyrido[1,2-a][1,4]diazacyclododecin-3-yl]carbonyl}amino)butanoyl]-10,10-dimethyl-7-azadispiro[3.0.4.1]decane-8-carboxamide]",8
4,"C=C[C@@H]1C[C@]1(NC(=O)[C@@H]1C[C@@]2(CN1C(=O)[C@@H](NC(=O)[C@@H](NC(=O)c1cc(C(C)C)n[nH]1)C(C)(C)C)C(C)(C)C)C(C)(C)C21CCC1)C(=O)NS(=O)(=O)C1CC1 [Compound 39, (5R,8S)-N-{(1R,2S)-1-[(cyclopropylsulfonyl)carba-moyl]-2-vinylcyclopropyl}-7-[(2S)-2-{[(2S)-2-{[(3-isopropyl-1H-pyrazol-5-yl)carbonyl]amino}-3,3-dimethylbutanoyl]amino}-3,3-dimethylbutanoyl]-10,10-dimethyl-7-azadispiro[3.0.4.1]decane-8-carboxamide]",6
5,"C=C[C@@H]1C[C@]1(NC(=O)[C@@H]1C[C@@]2(CN1C(=O)[C@@H](NC(=O)[C@@H](NC(=O)C1CNC(=O)N1)C(C)(C)C)C(C)(C)C)C(C)(C)C21CCC1)C(=O)NS(=O)(=O)C1CC1 (stereo partly drawn) [Compound 40, (5R,8S)-N-{(1R,2S)-1-[(cyclopropylsulfonyl)carba-moyl]-2-vinylcyclopropyl}-7-[(2S)-2-{[(2S)-3,3-dimethyl-2-{[(2-oxoimidazolidin-4-yl)carbonyl]amino}butanoyl]amino}-3,3-dimethylbutanoyl]-10,10-dimethyl-7-azadispiro[3.0.4.1]decane-8-carboxamide]",10
6,"C=C[C@@H]1C[C@]1(NC(=O)[C@@H]1C[C@@]2(CN1C(=O)[C@@H](NC(=O)[C@@H](NC(=O)c1ncn[nH]1)C(C)(C)C)C(C)(C)C)C(C)(C)C21CCC1)C(=O)NS(=O)(=O)C1CC1 [Compound 41, (5R,8S)-N-{(1R,2S)-1-[(cyclopropylsulfonyl)carba-moyl]-2-vinylcyclopropyl}-7-[(2S)-2-({(2S)-3,3-dimethyl-2-[(1H-1,2,4-triazol-5-ylcarbonyl)amino]butanoyl}amino)-3,3-dimethylbutanoyl]-10,10-dimethyl-7-azadispiro[3.0.4.1]decane-8-carboxamide]",25
7,"C=C[C@@H]1C[C@]1(NC(=O)[C@@H]1C[C@@]2(CN1C(=O)[C@@H](NC(=O)[C@@H](NC(=O)c1c[nH]c(=O)[nH]1)C(C)(C)C)C(C)(C)C)C(C)(C)C21CCC1)C(=O)NS(=O)(=O)C1CC1 [Compound 44, (5R,8S)-N-{(1R,2S)-1-[(cyclopropylsulfonyl)carba-moyl]-2-vinylcyclopropyl}-7-[(2S)-2-{[(2S)-3,3-dimethyl-2-{[(2-oxo-2,3-dihydro-1H-imidazol-4-yl)carbonyl]amino}butanoyl]amino}-3,3-dimethylbutanoyl]-10,10-dimethyl-7-azadispiro[3.0.4.1]decane-8-carboxamide]",2

# Same assay, conditions: read-out: Protease IC50
row,Compound,IC50 [nM]
1,"C=C[C@@H]1C[C@]1(NC(=O)[C@@H]1C[C@@]2(CN1C(=O)[C@@H](NC(=O)N[C@H](C(=O)N(C)C)C(C)(C)C)C(C)(C)C)C(C)(C)C21CCC1)C(=O)NS(=O)(=O)C1CC1 [Compound 30, (5R,8S)-N-{(1R,2S)-1-[(cyclopropylsulfonyl)carba-moyl]-2-vinylcyclopropyl}-7-[(2S)-2-({[(1S)-1-(dimethylcarbamoyl)-2,2-dimethylpropyl]carbamoyl}amino)-3,3-dimethylbutanoyl]-10,10-dimethyl-7-azadispiro[3.0.4.1]decane-8-carboxamide]",8
2,"C=C[C@@H]1C[C@]1(NC(=O)[C@@H]1C[C@@]2(CN1C(=O)[C@@H](NC(=O)N[C@H](C(=O)N1CCOCC1)C(C)(C)C)C(C)(C)C)C(C)(C)C21CCC1)C(=O)NS(=O)(=O)C1CC1 [Compound 31, (5R,8S)-N-{(1R,2S)-1-[(cyclopropylsulfonyl)carba-moyl]-2-vinylcyclopropyl}-7-[(2S)-2-({[(1S)-2,2-dimethyl-1-(morpholin-4-ylcarbonyl)propyl]carbamoyl}amino)-3,3-dimethylbutanoyl]-10,10-dimethyl-7-azadispiro[3.0.4.1]decane-8-carboxamide]",15
3,"C=C[C@@H]1C[C@]1(NC(=O)[C@@H]1C[C@@]2(CN1C(=O)[C@@H](NC(=O)N[C@H](C(=O)NC)C(C)(C)C)C(C)(C)C)C(C)(C)C21CCC1)C(=O)NS(=O)(=O)C1CC1 [Compound 32, (5R,8S)-N-{(1R,2S)-1-[(cyclopropylsulfonyl)carba-moyl]-2-vinylcyclopropyl}-7-[(2S)-2-({[(1S)-2,2-dimethyl-1-(methylcarbamoyl)propyl]carbamoyl}amino)-3,3-dimethylbutanoyl]-10,10-dimethyl-7-azadispiro[3.0.4.1]decane-8-carboxamide]",30
4,"C=C[C@@H]1C[C@]1(NC(=O)[C@@H]1C[C@@]2(CN1C(=O)[C@@H](NC(=O)N[C@H](CC(=O)N(C)C)C(C)(C)C)C(C)(C)C)C(C)(C)C21CCC1)C(=O)NS(=O)(=O)C1CC1 [Compound 33, (5R,8S)-N-{(1R,2S)-1-[(cyclopropylsulfonyl)carba-moyl]-2-vinylcyclopropyl}-7-{(2S)-2-[({(1R)-1-[2-(dimethylamino)-2-oxoethyl]-2,2-dimethylpropyl}carbamoyl)amino]-3,3-dimethylbutanoyl}-10,10-dimethyl-7-azadispiro[3.0.4.1]decane-8-carboxamide]",1400
5,"C=C[C@@H]1C[C@]1(NC(=O)[C@@H]1C[C@@]2(CN1C(=O)[C@@H](NC(=O)N[C@H](CC(=O)N1CCOCC1)C(C)(C)C)C(C)(C)C)C(C)(C)C21CCC1)C(=O)NS(=O)(=O)C1CC1 [Compound 34, (5R,8S)-N-{(1R,2S)-1-[(cyclopropylsulfonyl)carba-moyl]-2-vinylcyclopropyl}-7-[(2S)-2-({[(1R)-2,2-dimethyl-1-(2-morpholin-4-yl-2-oxoethyl)propyl]carbamoyl}amino)-3,3-dimethylbutanoyl]-10,10-dimethyl-7-azadispiro[3.0.4.1]decane-8-carboxamide]",2150
6,"C=C[C@@H]1C[C@]1(NC(=O)[C@@H]1C[C@@]2(CN1C(=O)[C@@H](NC(=O)NC13CC4CC(CC(C4)C1)C3)C(C)(C)C)C(C)(C)C21CCC1)C(=O)NS(=O)(=O)C1CC1 [Compound 37, (5R,8S)-7-{(2S)-2-[(adamantan-1-ylcarbamoyl)amino]-3,3-dimethylbutanoyl}-N-{(1R,2S)-1-[(cyclopropylsulfonyl)carba-moyl]-2-vinylcyclopropyl}-10,10-dimethyl-7-azadispiro[3.0.4.1]decane-8-carboxamide]",45
7,"C=C[C@@H]1C[C@]1(NC(=O)[C@@H]1C[C@@]2(CN1C(=O)[C@@H](NC(=O)O[C@H](C(=O)N(C)C)C(C)(C)C)C(C)(C)C)C(C)(C)C21CCC1)C(=O)NS(=O)(=O)C1CC1 [Compound 42, (1S)-1-(dimethylcarbamoyl)-2,2-dimethylpropyl [(1S)-1-{[(5R,8S)-8-({(1R,2S)-1-[(cyclopropylsulfonyl)carba-moyl]-2-vinylcyclopropyl}carbamoyl)-10,10-dimethyl-7-azadispiro[3.0.4.1]dec-7-yl]carbonyl}-2,2-dimethylpropyl]carbamate]",140
8,"C=C[C@@H]1C[C@]1(NC(=O)[C@@H]1C[C@@]2(CN1C(=O)[C@@H](CC(=O)OC(C)(C)C)C(C)(C)C)C(C)(C)C21CCC1)C(=O)NS(=O)(=O)C1CC1 [Compound 43, tert-butyl (3S)-3-{[(5R,8S)-8-({(1R,2S)-1-[(cyclopropylsulfonyl)carba-moyl]-2-vinylcyclopropyl}carbamoyl)-10,10-dimethyl-7-azadispiro[3.0.4.1]dec-7-yl]carbonyl}-4,4-dimethylpentanoate]",450
9,"C=C[C@@H]1C[C@]1(NC(=O)[C@@H]1C[C@@]2(CN1C(=O)[C@@H](NC(=O)[C@@H](CC(=O)OC(C)(C)C)C(C)(C)C)C(C)(C)C)C(C)(C)C21CCC1)C(=O)NS(=O)(=O)C1CC1 [Compound 45, tert-butyl (3S)-3-{[(1S)-1-{[(5R,8S)-8-({(1R,2S)-1-[(cyclopropylsulfonyl)carba-moyl]-2-vinylcyclopropyl}carbamoyl)-10,10-dimethyl-7-azadispiro[3.0.4.1]dec-7-yl]carbonyl}-2,2-dimethylpropyl]carbamoyl}-4,4-dimethylpentanoate]",65
